Measurements reported in patent US20240197709A1, “POTENTIATING THE TUMOR-SELECTIVE EFFECTS OF NQO1-BIOACTIVATABLE AGENT BY USE OF CMET INHIBITOR” (The Trustees of Indiana University, priority 2022, published 2024).

Columns and labels:
[1] = test system: Capan2-mCherry microtumor; test: 3D spheroid co-culture, tumor cells; type: cell-based; conditions: 3D co-culture with NIH3T3-GFP; crizotinib 2 μM, β-lap 2 μM or 4 μM
Experimental: FIG. 5D. Top Inset: Representative brightfield, green (NIH3T3-GFP), red (Capan2-mCherry), and merged images of 3D spheroid co-culture of Capan2-mCherry (cancer cells) and NIH3T3-GFP (normal cells). 3D co-cultures were exposed to specified treatment conditions and imaged at indicated times to monitor drug response. Scale bar=250 μm. Untreated NIH3T3-GFP 3D spheroid culture by itself (imaged at indicated times) was added for reference.
FIG. 5E. Bar graph of Capan2-mCherry 3D spheroid microtumor growth at specified treatment conditions over time. Asterisk (*) indicates synergistic response in the combination treatment compared to the corresponding individual treatments alone.
Next, we investigated the tumor-selectivity and efficacy of our combination treatment strategy using 3D co-culture spheroids of Capan2 PDAC (permanently labelled with mCherry) and NIH3T3 mouse embryonic fibroblast cells (permanently labelled with GFP) to mimic physiological cell-cell and cell-environment interactions during treatment. […] These are consistent with patient data comparing associated normal tissues versus tumors in pancreas (FIGS. 1-1B, 1-1G) and lungs (FIGS. 1A, 1-1B, 1-1H). Using confocal fluorescent microscopy, we noted that NIH3T3-GFP fibroblast cells were surrounding the Capan2-mCherry PDAC cells in the 3D spheroid co-culture (FIG. 5D).

[2] = test system: IMR90 lung fibroblast cell line; test: long-term cell survival assay, IMR90; type: cell-based, human; conditions: IMR90, no NQO1, high CAT; criz ± sub-lethal β-lap (3 μM)
Experimental: FIG. 1D. […] LC50 values were calculated from long-term cell survival graphs using GraphPad PRISM; ND denotes Not Determined even at the highest concentration presented. All error bars represent the mean±SEM. **** p<0.0001, *** p<0.001, ** p<0.01, *p<0.05.

[3] = in vivo; cited from earlier work
Capan2 shMET = test: long-term survival (DNA assay), Capan2 shSCR versus shMET; type: cell-based; conditions: DIC 50 μM
Excerpt: FIG. 1-1R. Graph showing relative long-term survival in isogenic Capan2 shSCR versus shMET cell lines using the DNA assay.
Dicoumarol (DIC) is a well-established NQO1 inhibitor (Asher, et al., Biochemistry 2006, 45(20), 6372-8; Motea, et al., Clin Cancer Res 2019, 25(8), 2601-2609; Huang, et al., Cancer Cell 2016, 30(6), 940-952).

[4] = test system: A549 NSCLC cell migration and invasion; conditions: A549, crizotinib+β-lap+DIC
Experimental: FIG. 4A. Representative images of A549 NSCLC cell migration at indicated treatment conditions at 16 h post-treatment using a Boyden chamber migration assay: 2 h pre-treatment with criz followed by additional 2 h with criz±β-lap.
FIG. 4B. Bar graph showing quantification of cell migration expressed as a percent of control (vehicle).
FIG. 4C. Representative images of A549 NSCLC cell invasion at indicated treatment conditions at 16 h post-treatment using a matrigel-coated Boyden chamber invasion assay: 2 h pre-treatment with criz followed by additional 2 h with criz±β-lap.
FIG. 4D. Bar graph showing quantification of cell invasion expressed as a percent of control (vehicle).

[5] = test system: cellular hydrogen peroxide (H2O2) levels in A549 cells; test: ROS-Glo H2O2 Assay; type: cell-based; conditions: A549, DIC 50 μM
Experimental: FIG. 2-1A. […] Growth media was then replaced with fresh media containing β-lap (3 μM) alone, criz alone (1 μM) or combination±DIC (50 μM) and collected at 15 and 120 min to measure H2O2 production using the ROS-Glo™ H2O2 Assay from Promega (Madison, WI). The assay was performed in three biological replicates.
Next, we sought to investigate the mechanistic role of cMET in promoting resistance to ROS-induced DNA lesions caused by the futile redox cycling of β-lap with NQO1. […] In response to H2O2 stimulation, cMET can translocate into the nucleus where it interacts with PARP1 for activation to enhance the repair of ROS-induced DNA damage. […] Next we performed PARP1 immunoprecipitation studies to determine whether it associates with activated cMET in the nucleus following treatment with β-lap at increasing doses.

SMILES | Capan2-mCherry microtumor growth [1] | long-term cell survival (sensitivity) [2] | MTD [3] | effect of added DIC on β-lap sensitivity (Capan2 shMET) | migration and invasion, DIC added to the combination treatment [4] | H2O2 formation, DIC added to β-lap+criz [5]
C[C@@H](Oc1cc(-c2cnn(C3CCNCC3)c2)cnc1N)c1c(Cl)ccc(F)c1Cl [crizotinib] | very little effect on tumor growth | remained resistant | 250 mg twice daily | – | – | –
O=c1oc2ccccc2c(O)c1Cc1c(O)c2ccccc2oc1=O [DIC, Dicoumarol] | – | – | – | rescued | restored the ability of A549 to migrate and invade | prevented H2O2 formation
